Results as given in patent US20070092464A1, “Betadine neutralizer” (priority 2005, published 2007).

Columns and labels:
[1] = use of the metabisulfite solution directly on human and animal patients (tolerability); assay type: in vivo; conditions: 0.020 to 0.035 percent by weight in water, on skin
Excerpt: Additionally, the same solution is effective for removing stains elsewhere. The solutions of the present embodiments may be packaged for liquid application, such as in bottles, or sprays, or swabs.

[2] = cosmetic remover solution with parabens; cited from earlier work
[3] = Iodine stain removal, trial and error testing / actual usage
Excerpt: In use, the desired level of concentration may be intentionally varied to correspond to anticipated situations. For instance, products that are directed towards general cleanup, such as flooring, or equipment, or linens, may be made at the higher ranges so as to ensure quick and complete neutralization of the Iodine. The higher concentrations serve also to overcome any associated soil or other materials that may impede the action of the sodium metabisulfite on the Iodine stains.

SMILES	deleterious effects or irritation to the patient [1]	irritation or other adverse reactions in and about the eyes of users [2]	effectiveness in eliminating Iodine staining ([3]; 0.020 to 0.035 percent by weight in water)	effectiveness of Iodine stain removal compared to modest aqueous solutions of sodium metabisulfite ([3]; sodium thiosulfate in an alkaline detergent type matrix, actual usage)
O=S([O-])S(=O)(=O)[O-].[Na+].[Na+] [sodium metabisulfite]	does not show any deleterious effects or irritation	did not contribute to any irritation or other adverse reactions	highly effective	–
O=S([O-])([O-])=S.[Na+].[Na+] [sodium thiosulfate, reference compound]	–	–	–	weak
